Data reported in paper PMC4393269, “Carvacrol Codrugs: A New Approach in the Antimicrobial Plan” (PLoS ONE, 2015).
≈ marks a conversion by molar mass, not a printed value. Read-outs that look alike come from different tables or passages of the source.

What was measured:
C. albicans ATCC 10231 [1] = assay: Broth microdilution MIC/MFC; assay type: cell-based; conditions: Candida albicans, ATCC10231
Method: Two Gram-positive (S. aureus ATCC 29213 and S. epidermidis ATCC 35984) and two Gram-negative (E. coli ATCC 8739 and P. aeruginosa ATCC 9027) strains, and one fungal strain (C. albicans ATCC 10231) were used for the detection of antibacterial activity of carvacrol, NAC, Ac-Cys(Allyl)-OH, and carvacrol codrugs 1–10. All tested compounds were dissolved in 20% DMSO to prepare the stock solution (100 mg/mL). The final concentration of DMSO in each well appeared to be not toxic for all studied microorganisms, as confirmed by the solvent control test included in the study.
The MIC detection of C. albicans ATCC 10231 was performed using the broth microdilution method according to EUCAST guidelines in RPMI 1640 plus 2% glucose with a final inoculum of 1–5 x 10^5 CFU/mL for 24–48 h at 37°C. The Minimum Fungicidal Concentration (MFC) was determined as the lowest concentration of substances at which no fungal growth occurred on Sabouraud agar plates.
Data were obtained from at least three independent experiments performed in duplicate. The susceptibility of the bacterial strains against ciprofloxacin was used as an internal standard during MIC determinations.

[2] = Kinetics of enzymatic hydrolysis in plasma; assay type: in vitro ADME; conditions: 37°C; for half-life at 40 µg/mL: pH 7.4, read-out: t½ (converted)
Method: (§1) The HPLC system consisted of a Waters 600 HPLC pump (Waters Corporation, Milford, MA, USA), equipped with a Waters 2996 photodiode array detector. The column was a Kinetex RP-C8 column (3.0 x 150 mm, 5 μm). The mobile phase consisted of 0.1% TFA in acetonitrile/0.1% TFA in 95% H2O and 5% acetonitrile 50:50, under isocratic conditions at a flow rate of 1 mL/min. The UV detector was set at a length of 220 nm.
The enzymatic hydrolysis was evaluated in human and rat plasma. […] A volume of 200 μL of this solution was added with pre-heated (37°C) plasma fractions (4 mL) previously diluted with 0.02 M phosphate buffer (pH 7.4) to give a final volume of 5 mL (80% plasma). Aliquots (100 μL) were taken at various times and deproteinized by mixing with 200 μL of 0.01 M HCl in methanol. After centrifugation for 5 min at 5000 × g, 10 μL of the supernatant layer were analysed by chromatography as described above. The amounts of remaining intact compound were plotted as a function of incubation time.

Water solubility (HPLC) = assay type: physicochemical; conditions: thermodynamic from solid, room temperature, mean of three experiments (SD)
Method: as §1, with “nm. […] Then the mixture was filtered using a Millipore filter (0.45 μm) and the concentration of the compound in its saturated solution was determined by HPLC analysis.” for “nm.”

[3] = Kinetics of chemical hydrolysis in buffers; assay type: physicochemical; conditions: for half-life at 9.1 µM: read-out: t½ (converted)
Method: as §1
[…] Reactions were initiated by adding 1 mL of 10^-4 M stock solution (in acetonitrile) of the compound to 10 mL of the appropriate aqueous buffer solution, containing 20% acetonitrile. At appropriate time intervals, samples of 20 μL were withdrawn and analyzed by HPLC. Pseudo-first-order rate constants (kobs) for the hydrolysis of the compounds were then calculated from the slopes of the linear plots of log (% residual compound) against time. The experiments were run in triplicate and the mean values of the rate constants were calculated.

[4] = Lipophilicity LogP (experimental); assay type: physicochemical; conditions: mean of three experiments (SD)
Excerpt: Table 3 Physicochemical properties of carvacrol codrug 4. | column: Lipophilicity / LogP ^a

S. aureus ATCC 29213 = assay: Transmission electron microscopy; assay type: cell-based; conditions: 12.5 mg/mL for 3 h
Excerpt: (§2) For transmission electron microscopy, microrganisms were fixed with 2.5% glutaraldehyde in 0.1 M cacodylate buffer, postfixed with 1% OsO4, dehydrated in graded ethanol and embedded in Epon 812. Ultrathin sections (60 to 80 nm) were then mounted on 200-mesh copper grids and stained with uranyl acetate and lead citrate for ultrastructural observation. Sections were photographed using a Philips 268 D electron microscope (FEI).

E. coli ATCC 8739 = assay: Transmission electron microscopy; assay type: cell-based; conditions: 12.5 mg/mL for 3 h
Excerpt: as §2

C. albicans ATCC 10231 [5] = assay: Transmission electron microscopy; assay type: cell-based; conditions: 12.5 mg/mL for 3 h
Excerpt: as §2

PAMPA-GI permeability = assay type: in vitro ADME; conditions: for Papp at 16 h: 16 h of incubation (table title), 2% Tween 80, 10% MeOH, read-out: PAMPA-GI permeability P e
Method: Parallel Artificial Membrane Permeability Assay (PAMPA) was used to measure the permeability coefficient (P e) of codrug 4 through the artificial membrane to predict oral absorption. The carvacrol codrug 4 permeability was determined using PAMPA-GI protocols already developed. Briefly, donor and acceptor plates were assembled to form a “sandwich” and incubated at room temperature for 18 h.
P e can be calculated from the equation below: Pe={VD⋅VA/(VD+VA)⋅A⋅t⋅ln(1−[drug]acceptor/[drug]equilibrium)} (1) where P e is the effective permeability coefficient (cm × s^-1), V D is the volume of the donor compartment (0.15 cm^3) and V A is the volume of the acceptor compartment (0.30 cm^3), A is the effective filter area (0.28 cm^2), t is the incubation time for the assay (s), [drug] acceptor is the concentration of the compound in the acceptor compartment at assay completion, and [drug] equilibrium is the concentration of the compound at theoretical equilibrium.

MIC (C. albicans ATCC 10231 [1]; C. albicans ATCC 10231, 24–48 h at 37°C, read-out: MIC): 1250 µg/mL (≈ 3.73 mM) | kobs ([2]; 80% human plasma): 1.38 (± 0.03) h^-1 | kobs ([2]; 80% rat plasma): 1.38 (± 0.05) h^-1 | half-life at 40 µg/mL ([2]; 80% human plasma): 30 min | half-life at 40 µg/mL ([2]; 80% rat plasma): 30 min | solubility at 15 min (Water solubility (HPLC)): 150 µg/mL (≈ 0.447 mM) | half-life at 9.1 µM ([3]; aqueous buffer pH 5.0, pH 5.0, 37°C): 2.59 days | half-life at 9.1 µM ([3]; hydrochloric acid buffer pH 1.3 (non-enzymatic SGF), pH 1.3, 37°C): 3.14 days | kobs ([3]; pH 1.3, 37°C): 0.009 (± 0.001) h^-1 | kobs ([3]; pH 7.4, 37°C): 0.030 (± 0.001) h^-1 | half-life at 9.1 µM ([3]; phosphate buffer pH 7.4 (non-enzymatic SIF), pH 7.4, 37°C): 0.954 days | logP [4]: 1.21 | Papp at 18 h (PAMPA-GI permeability; at each value of pH (5.0, 6.5, 7.4), after 18 h of incubation, read-out: PAMPA-GI permeability P e (bound)): > 1 ×10⁻⁶ cm/s | Papp at 16 h (PAMPA-GI permeability; pH 5.0 in donor and acceptor): 8.6 ×10⁻⁶ cm/s | Papp at 16 h (PAMPA-GI permeability; pH 6.5 in donor and acceptor): 17 ×10⁻⁶ cm/s | Papp at 16 h (PAMPA-GI permeability; pH 7.4 in donor and acceptor): 2.34 ×10⁻⁶ cm/s
SMILES: C=CCSC[C@H](NC(C)=O)C(=O)Oc1cc(C(C)C)ccc1C [codrug 4, N-Ac-Cys(Allyl)-CAR]
MFC (C. albicans ATCC 10231 [1]; C. albicans ATCC 10231, read-out: MFC): 1250 µg/mL (≈ 3.73 mM) | cell morphology by TEM (S. aureus ATCC 29213): induced abnormal septum formation with irregular features | cell morphology by TEM (E. coli ATCC 8739): alteration of outer membrane | cell morphology by TEM (C. albicans ATCC 10231 [5]): disintegration of the membranes
